{"source": "paper PMC12974487", "about": "“Inhibition of FicD-mediated AMPylation and deAMPylation by isoprenoid diphosphates” (Proceedings of the National Academy of Sciences of the …, 2026)", "key": {"[1]": {"molecular_target": "T1, FicD^E234G (Homo sapiens, UniProt Q9BVA6, E234G)", "T1 construct": "soluble ER luminal domain (residues 105 to 458) of wild-type human FicD and three mutants; 6xHis-Sumo (N, cleaved yes); made in house; host or cells: Rosetta(DE3) E. coli", "T1 sequence (Q9BVA6 105-458 E234G)": "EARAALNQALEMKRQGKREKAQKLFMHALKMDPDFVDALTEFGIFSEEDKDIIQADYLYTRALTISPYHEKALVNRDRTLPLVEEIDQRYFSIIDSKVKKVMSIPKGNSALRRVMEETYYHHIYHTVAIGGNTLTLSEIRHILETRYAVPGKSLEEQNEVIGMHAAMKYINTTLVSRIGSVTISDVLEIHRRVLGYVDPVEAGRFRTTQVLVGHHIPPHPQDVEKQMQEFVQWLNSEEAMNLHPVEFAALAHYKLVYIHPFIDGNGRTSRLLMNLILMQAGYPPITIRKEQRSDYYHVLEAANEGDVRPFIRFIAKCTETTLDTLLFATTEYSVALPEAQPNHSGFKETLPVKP", "assay": "MIDAS metabolite screen, FicD^E234G", "type": "binding", "settings": "cutoff Q < 0.05 and |Log2 corrected fold change| > 2, metabolites 5 µM", "description": "To identify small-molecule metabolite interactions with FicD, we applied an unbiased high-throughput screening approach known as MIDAS ([44])."}, "[2]": {"molecular_target": "T2, FicD^WT (Homo sapiens, UniProt Q9BVA6)", "T2 construct": "soluble ER luminal domain (residues 105 to 458) of wild-type human FicD; 6xHis-Sumo (N, cleaved yes); made in house; host or cells: Rosetta(DE3) E. coli", "T2 sequence (Q9BVA6 105-458)": "T1 sequence (Q9BVA6 105-458 E234G) with G130E", "assay": "In vitro AMPylation of Δ26hBiP^T229A by FicD^WT (Western blot)", "type": "biochemical", "settings": "for inhibition of AMPylation of Δ26hBiP^T229A by FicD^WT: 100 μM metabolite, 500 μM ATP, 5 mM MgCl2; for concentration at which inhibition of AMPylation started: dose-response Western blot, FicD^WT", "from_the_text": "(§1) We next sought to assess the effects of FPP, GPP, and isoprenoid analogues on FicD activity. To accurately judge the effects of small molecules on FicD AMPylation activity, we used the ATPase defective BiP^T229A mutant as substrate ([22], [49], [50]). Loss of ATP hydrolysis by the BiP mutant ensures: 1. conformational homogeneity of the BiP protein substrate; 2. lack of BiP competition for the ATP substrate; and 3. no production of ADP, a competitive inhibitor for ATP. In addition, we deleted the first 25 amino acids of BiP for ease with its purification and solubility. […]\nFor AMPylation assays with FicD and BiP, Δ104FicDWT and Δ26hBiPT229A were combined at a ratio\nof 1:80 in buffer containing 25mM HEPES pH 7.4, 100mM KCl, 5mM MgCl2, 500μM ATP, 1mM\nDTT, and small molecule where indicated. Assays with Δ104FicDWT were incubated for 1 hour.\nthe amount of FicD as in reactions containing FicDWT and were incubated at 37C for 4.5 hours. […]"}, "[3]": {"molecular_target": "T2, FicD^WT", "assay": "In vitro deAMPylation of Δ26hBiP^T229A-AMP by FicD^WT (Western blot)", "type": "biochemical", "settings": "for inhibition of deAMPylation activity of FicD^WT: 100 μM metabolite, 5 mM MgCl2; for concentration at which inhibition of deAMPylation started: dose-response Western blot, FicD^WT", "from_the_text": "as §1\nFor deAMPylation assays with FicD and BiP, Δ26hBiPT229A was in-vitro AMPylated by […]\n5mM MgCl2, 500uM ATP, 0.5% CHAPS, 1mM DTT. After one hour of incubation at 30-37C, the entire reaction mix was transferred into an Amicon 0.5mL 50kDa MWCO concentrator (cat no.\n7.4/150mM NaCl/10% glycerol/1mM DTT was added to the concentrated AMPylation reaction and then spun down again at 14,000 x g at 4C for 5-10 minutes. This step was repeated four times to buffer exchange AMPylated Δ26hBiPT229A.\nΔ104hFicDWT and Δ26hBiPT229A-AMP were combined at a ratio of 1:80 in buffer containing 25mM HEPES pH 7.4, 100mM KCl, 5mM MgCl2, 1mM DTT and the indicated small molecule where applicable. Reactions were incubated at 37C for 1 hour and stopped by the addition EDTA. 5X SDS sample buffer (250mM Tris pH 6.8, 10% Lithium dodecyl sulfate, 50% glycerol, 50mM DTT, 0.05% Bromophenol blue) was then added to the reactions and reactions were heated for 5 minutes at […]"}, "[4]": {"settings": "substrate exceeds FPP by two to three orders of magnitude"}}, "note": "Substitutions are numbered along the chain they refer to."}
{"smiles": "Nc1ncnc2c1ncn2[C@@H]1O[C@H](COP(=O)(O)OP(=O)(O)O)[C@@H](O)[C@H]1O", "note": "[ADP]", "values": [{"measurement": "MIDAS protein-metabolite interaction (enrichment/depletion)", "setting": "[1]", "value": "significantly enriched"}]}
{"smiles": "CC(C)=CCC/C(C)=C/CC/C(C)=C/COP(=O)(O)OP(=O)(O)O", "note": "[FPP, farnesyl-pyrophosphate]", "values": [{"measurement": "inhibition of AMPylation of Δ26hBiP^T229A by FicD^WT", "setting": "[2]", "value": "inhibited"}, {"measurement": "concentration at which inhibition of AMPylation started", "setting": "[2]", "value": 5, "unit": "µM"}, {"measurement": "apparent EC50 of inhibition of AMPylation", "setting": "[2]; [4]", "value": "low micromolar range"}, {"measurement": "inhibition of deAMPylation activity of FicD^WT", "setting": "[3]", "value": "inhibited"}, {"measurement": "concentration at which inhibition of deAMPylation started", "setting": "[3]", "value": 1, "unit": "µM"}, {"measurement": "apparent EC50 of inhibition of deAMPylation", "setting": "[3]; [4]", "value": "low micromolar range"}]}
{"smiles": "CC(C)=CCC/C(C)=C/COP(=O)(O)OP(=O)(O)O", "note": "[GPP, geranyl-pyrophosphate]", "values": [{"measurement": "inhibition of AMPylation of Δ26hBiP^T229A by FicD^WT", "setting": "[2]", "value": "inhibited"}, {"measurement": "concentration at which inhibition of AMPylation started", "setting": "[2]", "value": 20, "unit": "µM"}, {"measurement": "inhibition of deAMPylation activity of FicD^WT", "setting": "[3]", "value": "inhibited"}, {"measurement": "concentration at which inhibition of deAMPylation started", "setting": "[3]", "value": 5, "unit": "µM"}, {"measurement": "MIDAS protein-metabolite interaction (enrichment/depletion)", "setting": "[1]", "value": "significantly enriched"}]}
